Measurements reported in patent US7928078B2, “Conjugates of immune cell specific macrolide compounds with anti-inflammatory compounds for improved cellular targeting of anti-inflammatory therapy” (GlaxoSmithKline Istrazivacki Centar Zagreb D.O.O., priority 2001, dated 2011).

Tested on: not given
Assay: not given
Settings: not given

Structure (SMILES)	melting point
CC[C@H]1OC(=O)[C@H](C)[C@@H](O[C@@H]2C[C@](C)(OC)[C@H](O)C(C)O2)[C@H](C)[C@@H](O[C@@H]2O[C@H](C)C[C@@H](N(C)C)[C@H]2O)[C@](C)(O)C[C@@H](C)CN(CCCNC(=O)[C@@]2(O)[C@H](C)CC3C4C[C@H](F)C5=CC(=O)C=C[C@]5(C)[C@@]4(Cl)[C@@H](O)C[C@@]32C)[C@H](C)[C@@H](O)[C@]1(C)O (stereo partly drawn)	194 to 202 °C
CC[C@H]1OC(=O)[C@H](C)[C@@H](O[C@@H]2C[C@](C)(OC)[C@H](O)C(C)O2)[C@H](C)[C@@H](O[C@@H]2O[C@H](C)C[C@@H](N(C)C)[C@H]2O)[C@](C)(O)C[C@@H](C)CN(CCCNC(=O)[C@@]23OC(C)(C)O[C@@H]2CC2C4C[C@H](F)C5=CC(=O)C=C[C@]5(C)[C@@]4(F)[C@@H](O)C[C@@]23C)[C@H](C)[C@@H](O)[C@]1(C)O (stereo partly drawn)	178 °C
CC[C@H]1OC(=O)[C@H](C)[C@@H](OC(=O)CCCCOC(=O)[C@@]2(O)[C@H](C)CC3C4CCC5=CC(=O)C=C[C@]5(C)[C@@]4(F)[C@@H](O)C[C@@]32C)[C@H](C)[C@@H](O[C@@H]2O[C@H](C)C[C@@H](N(C)C)[C@H]2OC(C)=O)[C@](C)(O)C[C@@H](C)CN(C)[C@H](C)[C@@H](O)[C@]1(C)O (stereo partly drawn)	174 to 175 °C
CC[C@H]1OC(=O)[C@H](C)[C@@H](O[C@@H]2C[C@](C)(OC)[C@H](O)C(C)O2)[C@H](C)[C@@H](O[C@@H]2O[C@H](C)C[C@@H](N(C)C)[C@H]2OC(=O)CCCCOC(=O)[C@@]2(O)[C@H](C)CC3C4C[C@H](F)C5=CC(=O)C=C[C@]5(C)[C@@]4(F)[C@@H](O)C[C@@]32C)[C@](C)(O)C[C@@H](C)CN(C)[C@H](C)[C@@H](O)[C@]1(C)O (stereo partly drawn)	159 to 160 °C
CC[C@H]1OC(=O)[C@H](C)[C@@H](O[C@@H]2C[C@](C)(OC)[C@H](O)C(C)O2)[C@H](C)[C@@H](O[C@@H]2O[C@H](C)C[C@@H](N(C)C)[C@H]2OC(=O)CCCCOC(=O)[C@@]2(O)[C@H](C)CC3C4CCC5=CC(=O)C=C[C@]5(C)[C@@]4(F)[C@@H](O)C[C@@]32C)[C@](C)(O)C[C@@H](C)CN(C)[C@H](C)[C@@H](O)[C@]1(C)O (stereo partly drawn)	161 to 168 °C
CC[C@H]1OC(=O)[C@H](C)[C@@H](O[C@@H]2C[C@](C)(OC)[C@H](O)C(C)O2)[C@H](C)[C@@H](O[C@@H]2O[C@H](C)C[C@@H](N(C)C)[C@H]2OC(=O)CCCCOC(=O)[C@@]2(O)[C@H](C)CC3C4C[C@H](F)C5=CC(=O)C=C[C@]5(C)[C@@]4(Cl)[C@@H](O)C[C@@]32C)[C@](C)(O)C[C@@H](C)CN(C)[C@H](C)[C@@H](O)[C@]1(C)O (stereo partly drawn)	91 to 99 °C
CC[C@H]1OC(=O)[C@H](C)[C@@H](O)[C@H](C)[C@@H](O[C@@H]2O[C@H](C)C[C@@H](N(C)C)[C@H]2OC(=O)CCCCOC(=O)[C@@]2(O)[C@H](C)CC3C4CCC5=CC(=O)C=C[C@]5(C)[C@@]4(F)[C@@H](O)C[C@@]32C)[C@](C)(O)C[C@@H](C)CN(C)[C@H](C)[C@@H](O)[C@]1(C)O (stereo partly drawn)	170 °C
CC[C@H]1OC(=O)[C@H](C)[C@@H](O)[C@H](C)[C@@H](O[C@@H]2O[C@H](C)C[C@@H](N(C)C)[C@H]2OC(=O)CCCCOC(=O)[C@@]2(O)[C@H](C)CC3C4C[C@H](F)C5=CC(=O)C=C[C@]5(C)C4[C@@H](O)C[C@@]32C)[C@](C)(O)C[C@@H](C)CN(C)[C@H](C)[C@@H](O)[C@]1(C)O (stereo partly drawn)	145 to 151 °C
CC[C@H]1OC(=O)[C@H](C)[C@@H](O[C@@H]2C[C@](C)(OC)[C@H](O)C(C)O2)[C@H](C)[C@@H](O[C@@H]2O[C@H](C)C[C@@H](N(C)C)[C@H]2O)[C@](C)(O)C[C@@H](C)CN(CCCNC(=O)[C@@]2(O)[C@H](C)CC3C4C[C@H](F)C5=CC(=O)C=C[C@]5(C)C4[C@@H](O)C[C@@]32C)[C@H](C)[C@@H](O)[C@]1(C)O (stereo partly drawn)	175 to 178 °C
CC[C@H]1OC(=O)[C@H](C)[C@@H](O)[C@H](C)[C@@H](O[C@@H]2O[C@H](C)C[C@@H](N(C)C)[C@H]2OC(=O)CCCCOC(=O)[C@@]2(O)[C@H](C)CC3C4C[C@H](F)C5=CC(=O)C=C[C@]5(C)[C@@]4(Cl)[C@@H](O)C[C@@]32C)[C@](C)(O)C[C@@H](C)CN(C)[C@H](C)[C@@H](O)[C@]1(C)O (stereo partly drawn) [Compound 27]	130 to 132 °C

The next lines start with the values.

melting point	Structure (SMILES)
130 to 132 °C	CC[C@H]1OC(=O)C(C)[C@@H](O)[C@H](C)[C@@H](O[C@@H]2O[C@H](C)C[C@@H](N(C)C)[C@H]2O)[C@](C)(O)C[C@@H](C)CN(CCCNC(=O)[C@@]2(O)[C@H](C)CC3C4C[C@H](F)C5=CC(=O)C=C[C@]5(C)[C@@]4(Cl)[C@@H](O)C[C@@]32C)[C@H](C)[C@@H](O)[C@]1(C)O (stereo partly drawn)
202 to 204 °C	CC[C@H]1OC(=O)[C@H](C)[C@@H](O)[C@H](C)C(O[C@@H]2O[C@H](C)C[C@@H](N(C)C)[C@H]2O)[C@](C)(O)C[C@@H](C)CN(CCCNC(=O)[C@@]2(O)[C@H](C)CC3C4C[C@H](F)C5=CC(=O)C=C[C@]5(C)C4[C@@H](O)C[C@@]32C)[C@H](C)[C@@H](O)[C@]1(C)O (stereo partly drawn)
182 °C	CC[C@H]1OC(=O)[C@H](C)[C@@H](O)[C@H](C)[C@@H](O[C@@H]2O[C@H](C)C[C@@H](N(C)C)[C@H]2O)[C@](C)(O)C[C@@H](C)CN(CCCNC(=O)[C@@]2(O)[C@H](C)CC3C4C[C@H](F)C5=CC(=O)C=C[C@]5(C)[C@@]4(F)[C@@H](O)C[C@@]32C)[C@H](C)[C@@H](O)[C@]1(C)O (stereo partly drawn)
160 to 161 °C	CC[C@H]1OC(=O)[C@H](C)[C@@H](O)[C@H](C)[C@@H](O[C@@H]2O[C@H](C)C[C@@H](N(C)C)[C@H]2O)[C@](C)(O)C[C@@H](C)CN(CCCNC(=O)[C@@]2(O)CCC3C4CCC5=CC(=O)CC[C@]5(C)C4[C@@H](O)C[C@@]32C)[C@H](C)[C@@H](O)[C@]1(C)O (stereo partly drawn)
260 to 265 °C	CC[C@H]1OC(=O)[C@H](C)[C@@H](O)[C@H](C)[C@@H](O[C@@H]2O[C@H](C)C[C@@H](N(C)C)[C@H]2O)[C@](C)(O)C[C@@H](C)CN(CCCNC(=O)[C@@]2(O)[C@H](C)CC3C4CCC5=CC(=O)C=C[C@]5(C)[C@@]4(F)[C@@H](O)C[C@@]32C)[C@H](C)[C@@H](O)[C@]1(C)O (stereo partly drawn)

Target: T1, alpha isoform of human glucocorticoid receptor (Homo sapiens, UniProt P04150)
T1 construct: expressed in transfected cells; host or cells: COS-1 cells, transient transfection with pcDNA3.1 hygro(+) carrying the GR alpha cDNA
T1 sequence (P04150 1-777): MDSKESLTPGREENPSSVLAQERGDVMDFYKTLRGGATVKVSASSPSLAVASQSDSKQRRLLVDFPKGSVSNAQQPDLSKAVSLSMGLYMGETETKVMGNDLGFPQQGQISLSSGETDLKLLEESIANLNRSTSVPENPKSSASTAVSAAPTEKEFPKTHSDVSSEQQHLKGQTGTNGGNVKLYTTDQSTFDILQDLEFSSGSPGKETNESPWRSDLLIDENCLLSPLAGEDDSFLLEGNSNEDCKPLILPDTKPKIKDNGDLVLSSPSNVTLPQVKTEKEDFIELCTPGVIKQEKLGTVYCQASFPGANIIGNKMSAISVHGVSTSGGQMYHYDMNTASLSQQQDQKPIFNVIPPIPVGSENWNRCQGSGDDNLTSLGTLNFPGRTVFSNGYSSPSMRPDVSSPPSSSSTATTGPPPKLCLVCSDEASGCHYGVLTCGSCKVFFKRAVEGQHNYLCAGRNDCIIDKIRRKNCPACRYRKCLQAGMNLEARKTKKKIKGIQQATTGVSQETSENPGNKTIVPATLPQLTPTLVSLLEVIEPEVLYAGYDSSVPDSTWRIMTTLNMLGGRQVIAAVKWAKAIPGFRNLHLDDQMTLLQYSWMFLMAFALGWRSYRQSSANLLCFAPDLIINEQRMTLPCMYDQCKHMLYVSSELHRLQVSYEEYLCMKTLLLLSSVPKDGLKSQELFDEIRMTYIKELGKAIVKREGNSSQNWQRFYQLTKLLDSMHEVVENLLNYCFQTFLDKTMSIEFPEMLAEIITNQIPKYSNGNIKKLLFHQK
Assay: Assay of binding to the human glucocorticoid receptor ([3H] dexamethasone competition in transfected COS-1 cells)
Settings: 24 nM [3H] dexamethasone
Text: Assay of Binding to the Human Glucocorticoid Receptor
The gene for alpha isoform of human glucocorticoid receptor was cloned by reverse polymerase chain reaction. The total RNA was isolated from human peripheral blood lymphocites according to the instructions of the manufacturer (Qiagen), transcripted into cDNA with AMV reverse transcriptase (Roche) and the gene was multiplied by specific primers
The obtained reaction product was cloned into XhoI/BamHI site of Bluescript KS plasmid (Stratagene), subjected to sequencing by dideoxy fluorescent method with M13 and M13 rev primers (Mycrosynth) and then it was cloned into XhoI/BamHI site of pcDNA3.1 hygro(+)plasmid (Invitrogen). 1×10^5 COS-1 cells were seeded onto a 12-well plate (Falcon) in DMEM medium (Life Technologies) with 10% FBS (Biowhitaker) and cultivated up to a 70% confluence at 37° C. in an atmosphere with 5% CO2. The medium was removed and 1 μg of DNA, 7 μl of PLUS reagent and 2 μl of Lipofectamine (Life Technologies) in 500 μl DMEM were added per well. The cells were incubated at 37° C. in an atmosphere with 5% CO2 and after 5 hours the same volume of 20% FBS/DMEM was added. After 24 hours the medium was completely changed. 48 hours after the transfection, the test compounds in different concentrations and 24 nM [^3H] dexamethasone (Pharmacia) in DMEM medium were added. The cells were incubated for 90 minutes at 37° C. in an atmosphere with 5% CO2, washed three times with PBS buffer (Sigma), cooled to 4° C. (pH=7.4) and then lyzed in Tris buffer (pH=8.0) (Sigma) with 0.2% SDS (Sigma). After the addition of UltimaGold XR (Packard) scintillation liquid, the residual radioactivity was read in a Tricarb (Packard) β-scintillation counter.

Structure (SMILES)	competition with radioactive dexamethasone in the binding site on the glucocorticoid receptor
CC[C@H]1OC(=O)[C@H](C)[C@@H](O)[C@H](C)[C@@H](O[C@@H]2O[C@H](C)C[C@@H](N(C)C)[C@H]2OC(=O)CCCCOC(=O)[C@@]2(O)[C@H](C)CC3C4C[C@H](F)C5=CC(=O)C=C[C@]5(C)[C@@]4(Cl)[C@@H](O)C[C@@]32C)[C@](C)(O)C[C@@H](C)CN(C)[C@H](C)[C@@H](O)[C@]1(C)O (stereo partly drawn) [Compound 27]	able to compete with radioactive dexamethasone

Tested on: interleukin-2 production induced by the stimulation via CD3 receptor
Assay: Assay of inhibition of interleukin-2 production
Assay type: cell-based, mouse
Settings: not given
Experimental: Assay of Inhibition of Interleukin-2 Production
Onto a 96-well plate (Nunc) 15 ng of 2C11 antibodies (Pharmingen) per well were added and left to adsorb in PBS buffer (pH=7.4) overnight at 4° C. PBS was removed, the plate was washed with RPMI medium and then 50,000 cells per well were added and incubated in the medium with and without a dilution of the test compounds. The concentration of IL-2 in the supernatant was measured by ELISA specific for mouse IL-2 (R&D Systems).

Structure (SMILES)	inhibition of interleukin-2 production
CC[C@H]1OC(=O)[C@H](C)[C@@H](O)[C@H](C)[C@@H](O[C@@H]2O[C@H](C)C[C@@H](N(C)C)[C@H]2OC(=O)CCCCOC(=O)[C@@]2(O)[C@H](C)CC3C4C[C@H](F)C5=CC(=O)C=C[C@]5(C)[C@@]4(Cl)[C@@H](O)C[C@@]32C)[C@](C)(O)C[C@@H](C)CN(C)[C@H](C)[C@@H](O)[C@]1(C)O (stereo partly drawn) [Compound 27]	demonstrate an inhibition

Tested on: mouse T-cell hybridoma 13
Assay: Assay of inhibition of mouse T-cell hybridoma 13 proliferation as a result of apoptose induction
Assay type: cell-based
Settings: [3H] thymidine incorporation
Experimental: Assay of Inhibition of Mouse T-Cell Hybridoma 13 Proliferation as a Result of Apoptose Induction
In a 96-well plate triplicates of test steroid dilution in RPMI medium (Immunoloski zavod) with […] were performed. To the solutions of compounds 20 000 cells per well were added and incubated overnight at 37° C. in an atmosphere with 5% CO2, then 1 μCi of [^3H] thymidine (Pharmacia) was added and it was incubated for additional 3 hours. The cells were harvested by sucking over GF/C filter (Packard). Onto each well 30 μl of Microscynt O scintillation liquid (Packard) were added and the incorporated radioactivity was measured on a β-scintillation counter (Packard). The specifity of apoptose induction by glucocorticoids was proven by antagonising the proliferation inhibition with mifepristone (Sigma).

Structure (SMILES)	inhibition of cell hybridoma 13 proliferation
CC[C@H]1OC(=O)[C@H](C)[C@@H](O)[C@H](C)[C@@H](O[C@@H]2O[C@H](C)C[C@@H](N(C)C)[C@H]2OC(=O)CCCCOC(=O)[C@@]2(O)[C@H](C)CC3C4C[C@H](F)C5=CC(=O)C=C[C@]5(C)[C@@]4(Cl)[C@@H](O)C[C@@]32C)[C@](C)(O)C[C@@H](C)CN(C)[C@H](C)[C@@H](O)[C@]1(C)O (stereo partly drawn) [Compound 27]	demonstrated an inhibition
